Each structure is given as a SMILES string. Structures can show the parent of a compound that is named as a salt.

This assay concerns the target human GPR40 (Homo sapiens, UniProt O14842). Briefly: FDSS-based intracellular calcium assay (Human GRP40 in vitro assay). It counts as cell-based. Set-up: 3xFLAG; expressed in transfected cells. The conditions noted are these: cells expressing GPR40, intracellular Ca2+ response, FDSS reader; read-out: hGPR40 EC50. The procedure, abridged: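 GPR40-expressing cells, plated overnight in serum-free phenol red-free DMEM, loaded with Fluo-3 in HBSS with 1.7 mM probenecid for 30 min at 37° C. Compounds in DMSO, diluted in assay buffer, added as 3× solutions; intracellular Ca^2+ response read on FDSS.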
In general terms: Calcium flux is commonly read through the fluorescence of an indicator in the cells.

Sequence of human GPR40 (O14842 whole entry): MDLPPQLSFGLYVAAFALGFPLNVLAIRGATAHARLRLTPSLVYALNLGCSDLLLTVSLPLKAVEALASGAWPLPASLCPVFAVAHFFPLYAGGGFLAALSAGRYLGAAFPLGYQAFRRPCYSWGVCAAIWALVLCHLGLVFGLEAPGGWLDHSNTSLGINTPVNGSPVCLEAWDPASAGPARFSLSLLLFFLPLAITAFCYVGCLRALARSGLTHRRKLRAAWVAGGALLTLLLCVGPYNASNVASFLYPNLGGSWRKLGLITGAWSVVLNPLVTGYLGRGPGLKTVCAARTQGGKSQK

What is called EC50 is the midpoint of the concentration-response curve. As to `COc1cc(N2CCC(Oc3ccc(N4C[C@H](OC)C[C@@H]4CC(=O)O)cc3)C(Cn3cnnn3)C2)c(Cl)cn1` (stereo partly drawn) [Example 94, 2-((2R,4R)-1-(4-(((3,4-trans)-3-((1H-Tetrazol-1-yl)methyl)-1-(5-chloro-2-methoxypyridin-4-yl)piperidin-4-yl)oxy)phenyl)-4-methoxypyrrolidin-2-yl)acetic acid, TFA], the EC50 stood at 3.4 µM. Under `CCOc1ccc(F)c(N2CCC(Oc3ccc(N4C[C@H](OC)[C@@H](C)[C@@H]4CC(=O)O)cn3)CC2)c1` [Example 95, 2-((2S,3S,4R)-1-(6-((1-(5-Ethoxy-2-fluorophenyl)piperidin-4-yl)oxy)pyridin-3-yl)-4-methoxy-3-methylpyrrolidin-2-yl)acetic acid, TFA] stands 0.51 µM; under `COc1cc(N2CCC(Oc3ccc(N4C[C@H](OC)[C@@H](C)[C@@H]4CC(=O)O)cn3)CC2)c(Cl)cn1` [Example 97, 2-((2S,3S,4R)-1-(6-((1-(5-Chloro-2-methoxypyridin-4-yl)piperidin-4-yl)oxy)pyridin-3-yl)-4-methoxy-3-methylpyrrolidin-2-yl)acetic acid], 0.11 µM.

In the case of `CCOc1ccc(F)c(N2CCC(Oc3ccc(N4C[C@H](OC)[C@@H](C)[C@@H]4CC(=O)O)cc3F)C(C)C2)c1` (stereo partly drawn) [Example 100, 2-((2S,3S,4R)-1-(4-(((3,4-trans)-1-(5-Ethoxy-2-fluorophenyl)-3-methylpiperidin-4-yl)oxy)-3-fluorophenyl)-4-methoxy-3-methylpyrrolidin-2-yl)acetic acid], the EC50 is 0.11 µM. The result for `CCOc1ccc(F)c(N2CCC(Oc3ccc(N4C[C@H](OC)[C@@H](C)[C@@H]4CC(=O)O)cc3F)CC2)c1` [Example 101, 2-((2S,3S,4R)-1-(4-((1-(5-Ethoxy-2-fluorophenyl)piperidin-4-yl)oxy)-3-fluorophenyl)-4-methoxy-3-methylpyrrolidin-2-yl)acetic acid] reads 0.18 µM; that for `CCCCCO[C@@H]1C[C@H](CC(=O)O)N(c2ccc(OC3CCN(c4cc(OCC)ccc4F)CC3)cc2)C1` [Example 103, 2-((2R,4R)-1-(4-((1-(5-Ethoxy-2-fluorophenyl)piperidin-4-yl)oxy)phenyl)-4-(pentyloxy)pyrrolidin-2-yl)acetic acid, TFA], 0.12 µM. Under `CCOc1ccc(F)c(N2CCC(Oc3ccc(N4CC[C@@H](C)[C@@H]4CC(=O)O)cc3)CC2)c1` [Example 104, 2-((2S,3R)-1-(4-((1-(5-Ethoxy-2-fluorophenyl)piperidin-4-yl)oxy)phenyl)-3-methylpyrrolidin-2-yl)acetic acid, TFA] stands 0.25 µM. On to `COc1cc(N2CCC(Oc3ccc(N4CC[C@@H](C)[C@@H]4CC(=O)O)cn3)C(C)C2)c(Cl)cn1` (stereo partly drawn) [Example 105, 2-((2S,3R)-1-(6-(((3,4-trans)-1-(5-Chloro-2-methoxypyridin-4-yl)-3-methylpiperidin-4-yl)oxy)pyridin-3-yl)-3-methylpyrrolidin-2-yl)acetic acid], for which the EC50 was 0.06 µM.

On to `COc1cc(N2CCC(Oc3ccc(N4C[C@H](C)[C@@H](C)[C@@H]4CC(=O)O)cn3)C(C)C2)c(Cl)cn1` (stereo partly drawn) [Example 106, 2-((2S,3R,4R)-1-(6-(((3,4-trans)-1-(5-Chloro-2-methoxypyridin-4-yl)-3-methylpiperidin-4-yl)oxy)pyridin-3-yl)-3,4-dimethylpyrrolidin-2-yl)acetic acid], for which the EC50 came out at 0.17 µM. With `CCOc1ccc(F)c(N2CCC(Oc3ccc(N4C[C@H](OC)C[C@@H]4CC(=O)O)cc3)CC2)c1` [Example 107, 2-((2R,4R)-1-(4-((1-(5-Ethoxy-2-fluorophenyl)piperidin-4-yl)oxy)phenyl)-4-methoxypyrrolidin-2-yl)acetic acid, TFA], the EC50 was 0.16 µM. Turning to `COc1cc(N2CCC(Oc3ccc(N4CC(C)(C)C[C@@H]4CC(=O)O)cn3)C(C)C2)c(Cl)cn1` (stereo partly drawn) [Example 109, 2-((R)-1-(6-(((3,4-trans)-1-(5-Chloro-2-methoxypyridin-4-yl)-3-methylpiperidin-4-yl)oxy)pyridin-3-yl)-4,4-dimethylpyrrolidin-2-yl)acetic acid, TFA], the EC50 worked out at 0.23 µM. Under `COc1cc(N2CCC(Oc3ccc(N4C[C@H](C)C[C@@H]4CC(=O)O)cn3)C(C)C2)c(Cl)cn1` (stereo partly drawn) [Example 110, 2-((2R,4R)-1-(6-(((3,4-trans)-1-(5-Chloro-2-methoxypyridin-4-yl)-3-methylpiperidin-4-yl)oxy)pyridin-3-yl)-4-methylpyrrolidin-2-yl)acetic acid] stands 0.22 µM; under `COc1cc(N2CCC(Oc3ccc(N4C[C@H](OC)[C@@H](C)[C@@H]4CC(=O)O)c(F)c3)C(C)C2)c(Cl)cn1` (stereo partly drawn) [Example 111, 2-((2S,3S,4R)-1-(4-(((3,4-trans)-1-(5-Chloro-2-methoxypyridin-4-yl)-3-methylpiperidin-4-yl)oxy)-2-fluorophenyl)-4-methoxy-3-methylpyrrolidin-2-yl)acetic acid], 0.11 µM. The result for `COc1cc(N2CCC(Oc3ccc(N4C[C@H](OC)[C@@H](C)[C@@H]4CC(=O)O)c(F)c3)CC2)c(Cl)cn1` [Example 112, 2-((2S,3S,4R)-1-(4-((1-(5-Chloro-2-methoxypyridin-4-yl)piperidin-4-yl)oxy)-2-fluorophenyl)-4-methoxy-3-methylpyrrolidin-2-yl)acetic acid] reads 0.13 µM. For the compound `CCOc1ccc(F)c(N2CCC(Oc3ccc(N4C[C@H](OC)[C@@H](C)[C@@H]4CC(=O)O)c(F)c3)C(C)C2)c1` (stereo partly drawn) [Example 113, 2-((2S,3S,4R)-1-(4-(((3,4-trans)-1-(5-Ethoxy-2-fluorophenyl)-3-methylpiperidin-4-yl)oxy)-2-fluorophenyl)-4-methoxy-3-methylpyrrolidin-2-yl)acetic acid], the EC50 is 0.29 µM. In the case of `CCOc1ccc(F)c(N2CCC(Oc3ccc(N4C[C@H](OC)[C@@H](C)[C@@H]4CC(=O)O)c(F)c3)CC2)c1` [Example 114, 2-((2S,3S,4R)-1-(4-((1-(5-Ethoxy-2-fluorophenyl)piperidin-4-yl)oxy)-2-fluorophenyl)-4-methoxy-3-methylpyrrolidin-2-yl)acetic acid], the EC50 was determined as 0.32 µM. Consider `CCOc1ccc(F)c(N2CCC(Oc3ccc(N4C[C@H](c5cccc(C(F)(F)F)c5)C[C@@H]4CC(=O)O)cc3)CC2)c1` [Example 122, 2-((2R,4S)-1-(4-((1-(5-Ethoxy-2-fluorophenyl)piperidin-4-yl)oxy)phenyl)-4-(3-(trifluoromethyl)phenyl)pyrrolidin-2-yl)acetic acid, TFA], for which the EC50 is 0.24 µM. Under `CCOc1ccc(F)c(N2CCC(Oc3ccc(N4C[C@H](c5cnn(C)c5)C[C@@H]4CC(=O)O)cc3)CC2)c1` [Example 126, 2-((2R,4S)-1-(4-((1-(5-Ethoxy-2-fluorophenyl)piperidin-4-yl)oxy)phenyl)-4-(1-methyl-1H-pyrazol-4-yl)pyrrolidin-2-yl)acetic acid, TFA] stands 0.81 µM; under `CCOc1ccc(F)c(N2CCC(Oc3ccc(N4C[C@H](Oc5ccc(C#N)cc5)CC4CC(=O)O)cc3)CC2)c1` (stereo partly drawn) [Example 128, 2-((4R)-4-(4-Cyanophenoxy)-1-(4-((1-(5-ethoxy-2-fluorophenyl)piperidin-4-yl)oxy)phenyl)pyrrolidin-2-yl)acetic acid, HCl], 1.3 µM; under `CCOc1ccc(F)c(N2CCC(Oc3ccc(N4C[C@H](C#N)C[C@@H]4CC(=O)O)cc3)CC2)c1` [Example 130, 2-((2R,4R)-4-Cyano-1-(4-((1-(5-ethoxy-2-fluorophenyl)piperidin-4-yl)oxy)phenyl)pyrrolidin-2-yl)acetic acid, TFA], 2.1 µM.

With `COc1cc(N2CCC(Oc3ccc(N4C[C@@H](OC)[C@H](C)[C@H]4CC(=O)O)cc3)C(C)C2)c(Cl)cn1` (stereo partly drawn) [Example 131, 2-((2R,3R,4S)-1-(4-(((3,4-trans)-1-(5-Chloro-2-methoxypyridin-4-yl)-3-methylpiperidin-4-yl)oxy)phenyl)-4-methoxy-3-methylpyrrolidin-2-yl)acetic acid], the EC50 came to 4.7 µM. The result for `COc1cc(N2CCC(Oc3ccc(N4C[C@H](C(F)(F)F)C[C@@H]4CC(=O)O)cc3F)C(C)C2)c(Cl)cn1` (stereo partly drawn) [Example 134, 2-((2R,4R)-1-(4-(((3,4-trans)-1-(5-Chloro-2-methoxypyridin-4-yl)-3-methylpiperidin-4-yl)oxy)-3-fluorophenyl)-4-(trifluoromethyl)pyrrolidin-2-yl)acetic acid] reads 0.58 µM; that for `COc1cc(N2CCC(Oc3ccc(N4C[C@H](C(F)(F)F)C[C@@H]4CC(=O)O)c(Cl)c3)C(C)C2)c(Cl)cn1` (stereo partly drawn) [Example 135, 2-((2R,4R)-1-(2-Chloro-4-(((3,4-trans)-1-(5-chloro-2-methoxypyridin-4-yl)-3-methylpiperidin-4-yl)oxy)phenyl)-4-(trifluoromethyl)pyrrolidin-2-yl)acetic acid, HCO2H], 0.4 µM. In the case of `COc1cc(N2CCC(Oc3ccc(N4C[C@H](C(F)(F)F)C[C@@H]4CC(=O)O)cc3Cl)C(C)C2)c(Cl)cn1` (stereo partly drawn) [Example 136, 2-((2R,4R)-1-(3-Chloro-4-(((3,4-trans)-1-(5-chloro-2-methoxypyridin-4-yl)-3-methylpiperidin-4-yl)oxy)phenyl)-4-(trifluoromethyl)pyrrolidin-2-yl)acetic acid], the EC50 worked out at 0.5 µM. Under `COc1cc(N2CCC(Oc3ccc(N4C[C@H](OC)C[C@@H]4CC(=O)O)cc3Cl)C(C)C2)c(Cl)cn1` (stereo partly drawn) [Example 137, 2-((2R,4R)-1-(3-Chloro-4-(((3,4-trans)-1-(5-chloro-2-methoxypyridin-4-yl)-3-methylpiperidin-4-yl)oxy)phenyl)-4-methoxypyrrolidin-2-yl)acetic acid, sodium salt] stands 0.23 µM; under `CCOc1ccc(F)c(N2CCC(Oc3ccc(N4C[C@H](C(F)(F)F)C[C@@H]4CC(=O)O)c(F)c3)CC2)c1` [Example 143], 0.36 µM; under `COc1cc(N2CCC(Oc3ccc(N4C[C@H](F)[C@@H](C)[C@@H]4CC(=O)O)cc3)C(C)C2)c(Cl)cn1` (stereo partly shown) [Example 145], 0.026 µM. For `COc1cc(N2CCC(Oc3ccc(N4C[C@H](F)[C@@H](C)[C@@H]4CC(=O)O)cn3)C(C)C2)c(Cl)cn1` (stereo partly shown) [Example 146], the EC50 was found to be 0.09 µM.

These data come from patent publication US9714231B2, “Pyrrolidine GPR40 modulators” (BRISTOL-MYERS SQUIBB COMPANY, priority 2012, dated 2017).
